Assay type in all cases: biochemical
One experiment addresses JAK1 (Homo sapiens, UniProt P23458). Kind of experiment: experiment of inhibiting kinase activity (Caliper mobility shift assay), JAK1. The conditions noted are these: read-out: inhibition rate JAK1; for inhibition at 0.01 µM: at 10 nM; for inhibition at 0.1 µM: at 100 nM. The protocol:
(§1) The inhibition rates of tested compounds on JAK1, JAK2, JAK3, TYK2, CDK7, CDK9, EGFR (T790M) and LRRK2 kinases were measured. The test concentrations of the compounds were 10 nM and 100 nM, and the detection was performed by replicate wells. Alternatively, compounds were 3-fold serial diluted from 10 µM for 10 concentrations in replicate wells.
(§2) The inhibitory effects of the compounds on JAK1, JAK2, JAK3, CDK7 and CDK9 kinases were detected by the method of Caliper mobility shift assay. 250 nL of the compound at 100-fold final concentration was transferred to a destination plate 384-well-plate by using a liquid handler Echo 550. A kinase solution at 2.5-fold final concentration was prepared with 1×kinase buffer. 10 µL of the kinase solution with 2.5-fold final concentration was added to compound wells and positive control wells; and 10 µL of 1×kinase buffer was added to negative control wells. The mixture was centrifuged at 1000 rpm for 30 seconds and then incubated at room temperature for 10 minutes. A mixed solution of ATP and kinase substrate at 5/3-fold final concentration was prepared with 1×kinase buffer, and 15 µL of the mixed solution of ATP and substrate at 5/3-fold final concentration was added to start the reaction. The 384-well plate was centrifuged at 1000 rpm for 30 seconds, shaked and mixed evenly, then incubated at room temperature for a corresponding time. 30 µL of stop solution was added to stop the kinase reaction, the mixture was centrifuged at 1000 rpm for 30 seconds, and shaked and mixed evenly. The conversion rate was read by Caliper EZ Reader. The conversion inhibition rate%=(average positive control conversion rate%-sample conversion rate%)/(average positive control conversion rate%-average negative control conversion rate%). Where negative control wells represent the conversion readings of the background well of kinase buffer; and positive control wells represent the conversion readings of wells without compound inhibition. With the log value of concentration as the x axis and the percentage inhibition rate as the y axis, the dose-response curve was fitted by the log (inhibitor) vs. response-variable slope of the analyzing softwar GraphPad Prism 5, and the IC50 values of each compound on enzyme activity were obtained. Calculation formula is as follows: y=Bottom+(Top-Bottom)/(1+10^((LogIC50-x)×hillslope)), where x is logarithm of inhibitor concentration; and Y is % inhibition rate.

A further experiment deals with JAK2 (Homo sapiens, UniProt O60674). The experiment is described as follows: experiment of inhibiting kinase activity (Caliper mobility shift assay), JAK2. Particulars: for inhibition at 0.01 µM: at 10 nM; for inhibition at 0.01 µM / inhibition at 0.1 µM: read-out: inhibition rate JAK2; for inhibition at 0.1 µM: at 100 nM; for IC50: kinase activity assay, Table 3. Here is the method: as §1, §2
Chain of JAK2 (O60674 whole entry): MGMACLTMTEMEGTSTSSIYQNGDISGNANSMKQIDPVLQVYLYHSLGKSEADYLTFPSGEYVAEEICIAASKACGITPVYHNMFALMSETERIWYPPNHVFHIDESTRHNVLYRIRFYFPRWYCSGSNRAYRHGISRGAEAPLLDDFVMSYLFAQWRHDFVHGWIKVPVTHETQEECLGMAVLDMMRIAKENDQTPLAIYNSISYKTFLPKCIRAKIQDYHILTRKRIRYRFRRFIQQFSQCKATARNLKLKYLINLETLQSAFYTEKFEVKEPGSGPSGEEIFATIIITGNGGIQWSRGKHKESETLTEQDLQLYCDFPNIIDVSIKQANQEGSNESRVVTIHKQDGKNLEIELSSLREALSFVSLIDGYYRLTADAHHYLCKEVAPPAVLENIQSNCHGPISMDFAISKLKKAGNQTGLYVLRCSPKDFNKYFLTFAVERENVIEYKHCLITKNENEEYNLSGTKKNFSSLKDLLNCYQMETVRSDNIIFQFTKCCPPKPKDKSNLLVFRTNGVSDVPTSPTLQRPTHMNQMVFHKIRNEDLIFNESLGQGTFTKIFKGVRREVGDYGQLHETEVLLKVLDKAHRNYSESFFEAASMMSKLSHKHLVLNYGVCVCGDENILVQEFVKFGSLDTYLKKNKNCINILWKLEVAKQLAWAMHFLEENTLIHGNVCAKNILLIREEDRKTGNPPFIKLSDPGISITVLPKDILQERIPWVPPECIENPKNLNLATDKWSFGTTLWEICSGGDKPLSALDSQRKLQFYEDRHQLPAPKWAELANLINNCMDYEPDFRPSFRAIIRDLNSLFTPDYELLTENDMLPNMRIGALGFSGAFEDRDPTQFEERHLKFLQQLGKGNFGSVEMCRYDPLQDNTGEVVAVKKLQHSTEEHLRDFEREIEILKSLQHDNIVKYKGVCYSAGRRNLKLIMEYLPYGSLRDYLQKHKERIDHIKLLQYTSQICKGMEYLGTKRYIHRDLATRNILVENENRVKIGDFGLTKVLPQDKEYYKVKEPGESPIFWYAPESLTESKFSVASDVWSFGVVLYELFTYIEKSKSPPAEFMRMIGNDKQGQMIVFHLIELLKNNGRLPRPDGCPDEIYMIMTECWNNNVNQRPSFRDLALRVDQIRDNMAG

In another experiment the target is TYK2 (Homo sapiens, UniProt P29597). The experiment is described as follows: experiment of inhibiting kinase activity, TYK2. The conditions noted are these: read-out: inhibition rate TYK2; for inhibition at 0.01 µM: at 10 nM; for inhibition at 0.1 µM: at 100 nM. The protocol:
as §1

Another experiment deals with LRRK2 (Homo sapiens, UniProt Q5S007). The experiment is described as follows: experiment of inhibiting kinase activity, LRRK2. Particulars: for inhibition at 0.01 µM: at 10 nM; for inhibition at 0.01 µM / inhibition at 0.1 µM: read-out: inhibition rate LRRK2; for inhibition at 0.1 µM: at 100 nM; for IC50: kinase activity assay, Table 3. The protocol:
as §1

The next experiment addresses T1, JAK3 (Homo sapiens, UniProt P52333).
T1 sequence (P52333 1-1124): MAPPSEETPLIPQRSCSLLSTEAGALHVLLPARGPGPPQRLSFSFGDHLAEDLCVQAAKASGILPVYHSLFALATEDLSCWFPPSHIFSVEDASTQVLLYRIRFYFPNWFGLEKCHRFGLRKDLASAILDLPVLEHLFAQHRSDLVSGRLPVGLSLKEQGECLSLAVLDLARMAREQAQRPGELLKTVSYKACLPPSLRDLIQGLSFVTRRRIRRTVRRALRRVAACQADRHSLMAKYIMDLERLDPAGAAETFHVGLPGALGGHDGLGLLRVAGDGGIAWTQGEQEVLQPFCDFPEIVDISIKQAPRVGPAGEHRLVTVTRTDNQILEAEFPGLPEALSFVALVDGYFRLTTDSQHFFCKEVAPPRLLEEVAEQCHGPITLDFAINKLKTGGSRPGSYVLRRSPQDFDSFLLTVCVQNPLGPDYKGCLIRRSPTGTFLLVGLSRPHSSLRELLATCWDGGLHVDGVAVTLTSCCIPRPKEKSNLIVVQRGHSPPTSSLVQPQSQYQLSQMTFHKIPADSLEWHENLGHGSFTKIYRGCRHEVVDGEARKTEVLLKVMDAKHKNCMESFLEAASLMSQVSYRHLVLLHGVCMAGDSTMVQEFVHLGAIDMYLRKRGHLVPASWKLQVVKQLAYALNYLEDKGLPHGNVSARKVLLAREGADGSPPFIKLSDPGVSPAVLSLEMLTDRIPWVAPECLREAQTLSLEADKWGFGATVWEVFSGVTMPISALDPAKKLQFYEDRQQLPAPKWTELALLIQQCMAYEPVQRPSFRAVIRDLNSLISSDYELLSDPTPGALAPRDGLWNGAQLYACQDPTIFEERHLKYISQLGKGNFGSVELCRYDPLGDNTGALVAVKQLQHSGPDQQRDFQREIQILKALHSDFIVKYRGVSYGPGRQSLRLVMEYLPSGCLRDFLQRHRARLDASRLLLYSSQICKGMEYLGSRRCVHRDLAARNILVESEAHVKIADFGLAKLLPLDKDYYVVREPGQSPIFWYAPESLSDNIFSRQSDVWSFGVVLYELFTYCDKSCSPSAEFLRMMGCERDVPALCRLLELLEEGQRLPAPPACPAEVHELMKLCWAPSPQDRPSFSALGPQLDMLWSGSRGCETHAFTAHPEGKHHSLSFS
The experiment is described as follows: experiment of inhibiting kinase activity (Caliper mobility shift assay), JAK3. Particulars: for inhibition at 0.01 µM: at 10 nM; for inhibition at 0.01 µM / inhibition at 0.1 µM: read-out: inhibition rate JAK3; for inhibition at 0.1 µM: at 100 nM. Here is the method:
as §1, §2

Broadly, the inhibition is the share of the control response that was lost under treatment. In general, IC50 refers to the midpoint of a concentration-inhibition curve.

Chain of JAK1 (P23458 whole entry): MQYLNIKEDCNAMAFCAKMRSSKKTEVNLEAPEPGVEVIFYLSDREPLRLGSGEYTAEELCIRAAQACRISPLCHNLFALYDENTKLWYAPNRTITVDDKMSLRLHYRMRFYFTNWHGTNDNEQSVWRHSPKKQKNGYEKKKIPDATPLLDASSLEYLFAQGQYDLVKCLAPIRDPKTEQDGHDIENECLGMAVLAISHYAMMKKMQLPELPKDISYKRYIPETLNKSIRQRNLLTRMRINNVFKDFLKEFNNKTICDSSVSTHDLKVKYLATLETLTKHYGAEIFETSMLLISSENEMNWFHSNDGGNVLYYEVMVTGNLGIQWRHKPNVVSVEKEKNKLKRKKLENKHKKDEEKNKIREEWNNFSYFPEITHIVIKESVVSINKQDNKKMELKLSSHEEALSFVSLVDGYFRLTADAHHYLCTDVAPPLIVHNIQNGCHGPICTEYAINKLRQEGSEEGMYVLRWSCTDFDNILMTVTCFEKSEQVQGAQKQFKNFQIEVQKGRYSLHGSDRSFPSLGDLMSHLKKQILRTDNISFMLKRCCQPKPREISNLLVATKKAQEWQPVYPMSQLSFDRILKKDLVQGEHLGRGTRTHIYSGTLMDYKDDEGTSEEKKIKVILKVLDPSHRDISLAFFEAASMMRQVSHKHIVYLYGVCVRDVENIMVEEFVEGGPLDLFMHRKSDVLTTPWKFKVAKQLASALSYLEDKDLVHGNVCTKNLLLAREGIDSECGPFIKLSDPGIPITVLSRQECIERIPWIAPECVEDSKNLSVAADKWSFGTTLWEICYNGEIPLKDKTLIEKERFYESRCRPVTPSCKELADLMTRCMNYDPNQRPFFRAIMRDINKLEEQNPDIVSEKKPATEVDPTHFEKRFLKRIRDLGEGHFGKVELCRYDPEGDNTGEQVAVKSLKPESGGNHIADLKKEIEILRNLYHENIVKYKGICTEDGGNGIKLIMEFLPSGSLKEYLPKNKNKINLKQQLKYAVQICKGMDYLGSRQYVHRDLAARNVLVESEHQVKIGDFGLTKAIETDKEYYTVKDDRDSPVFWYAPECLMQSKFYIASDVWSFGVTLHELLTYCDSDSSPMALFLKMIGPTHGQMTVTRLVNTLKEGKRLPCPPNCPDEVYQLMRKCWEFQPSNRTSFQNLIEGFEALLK
Chain of TYK2 (P29597 whole entry): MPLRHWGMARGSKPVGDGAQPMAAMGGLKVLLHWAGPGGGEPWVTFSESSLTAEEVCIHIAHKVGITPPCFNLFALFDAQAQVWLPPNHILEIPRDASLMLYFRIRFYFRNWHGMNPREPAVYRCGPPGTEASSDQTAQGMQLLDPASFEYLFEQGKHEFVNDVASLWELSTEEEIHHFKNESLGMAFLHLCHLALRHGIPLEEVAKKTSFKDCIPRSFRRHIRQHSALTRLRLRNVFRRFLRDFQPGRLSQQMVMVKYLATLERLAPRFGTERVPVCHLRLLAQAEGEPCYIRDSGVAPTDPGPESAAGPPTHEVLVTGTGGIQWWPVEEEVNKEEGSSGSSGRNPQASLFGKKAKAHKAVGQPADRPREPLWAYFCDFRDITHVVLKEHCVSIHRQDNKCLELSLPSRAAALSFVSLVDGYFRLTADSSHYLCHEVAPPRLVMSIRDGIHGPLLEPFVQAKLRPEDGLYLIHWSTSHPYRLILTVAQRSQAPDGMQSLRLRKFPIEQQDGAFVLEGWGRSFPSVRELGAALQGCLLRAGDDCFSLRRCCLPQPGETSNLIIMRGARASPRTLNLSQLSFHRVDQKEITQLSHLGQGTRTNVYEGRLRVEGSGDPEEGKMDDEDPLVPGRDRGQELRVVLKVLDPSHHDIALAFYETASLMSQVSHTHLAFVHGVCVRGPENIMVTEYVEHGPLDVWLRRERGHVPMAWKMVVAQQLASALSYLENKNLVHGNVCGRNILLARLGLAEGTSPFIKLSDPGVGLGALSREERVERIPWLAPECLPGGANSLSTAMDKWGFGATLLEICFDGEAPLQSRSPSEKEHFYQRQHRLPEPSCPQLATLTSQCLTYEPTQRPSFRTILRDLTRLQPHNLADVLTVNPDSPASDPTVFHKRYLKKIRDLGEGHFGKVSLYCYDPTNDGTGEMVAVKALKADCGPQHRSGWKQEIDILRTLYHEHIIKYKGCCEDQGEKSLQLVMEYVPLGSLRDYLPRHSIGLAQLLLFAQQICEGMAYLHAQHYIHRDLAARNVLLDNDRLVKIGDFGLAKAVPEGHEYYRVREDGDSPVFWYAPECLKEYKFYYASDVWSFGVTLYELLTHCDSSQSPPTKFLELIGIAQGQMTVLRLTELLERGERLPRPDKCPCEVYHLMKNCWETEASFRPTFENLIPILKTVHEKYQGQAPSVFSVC

Turning to `CN1CCOc2ccc(Nc3nc(N4C[C@H]5CC[C@@H](C4)N5C(=O)C4CC4)c4cc[nH]c4n3)cc2OCC1` [Example 79, cyclopropyl((1R,5S)-3-(2-((4-methyl-3,4,5,6-tetrahydro-2H-benzo[b][1,4,7]dioxazolin-9-yl)amino)-7H-pyrrolo[2,3-d]pyrimidin-4-yl)-3,8-diazabicyclo[3.2.1]octan-8-yl)methanone], the inhibition at 0.01 µM was 40 to 79% at JAK1, > 80% at JAK2, > 80% on TYK2 and 40 to 79% at LRRK2.

For `CN1CCOc2ccc(Nc3nc(-c4cnn([C@@H](CC#N)C5CCCC5)c4)c4cc[nH]c4n3)cc2OCC1` [Example 77, (S)-3-cyclopentyl-3-(4-(2-((4-methyl-3,4,5,6-tetrahydro-2H-benzo[b][1,4,7]dioxazolin-9-yl)amino)-7H-pyrrolo[2,3-d]pyrimidin-4-yl)-1H-pyrazol-1-yl)propanenitrile], the inhibition at 0.01 µM at JAK1, on JAK2, on JAK3, on TYK2 and at LRRK2 was > 80% each time.

Take `CN1CCOCCOc2cc(Nc3nc(-c4ccc(C(=O)NCC#N)cc4)c4cc[nH]c4n3)ccc2OCC1` [Example 17, N-(cyanomethyl)-4-(2-((7-methyl-2,3,6,7,8,9-hexahydro-5H-benzo[b][1,4,7]trioxa [10]azacyclododecan-13-yl)amino)-7H-pyrrolo[2,3-d]pyrimidin-4-yl)benzamide]: the inhibition at 0.01 µM was 40 to 79% at JAK1; > 80% on JAK2; 40 to 79% on JAK3; 40 to 79% at TYK2; 40 to 79% on LRRK2.

`CN1CCOCCOc2cc(Nc3ncc(F)c(Nc4cccc(S(=O)(=O)NC(C)(C)C)c4)n3)ccc2OCC1` [Example 9, N-(tert-butyl)-3-((5-fluoro-2-((7-methyl-2,3,6,7,8,9-hexahydro-5H-benzo[b][1,4,7]trioxa[10]azacyclododecan-13-yl)amino)pyrimidin-4-yl)amino)benzenesulfonamide]: the inhibition at 0.1 µM on JAK1 was 25 to 39%; at JAK2 it was > 80%; on JAK3, 40 to 79%; at TYK2, 40 to 79%; at LRRK2, 40 to 79%. Moreover, the inhibition at 0.01 µM at JAK2 was > 80%. For the same compound, on JAK2, the IC50 was < 50 nM.

For the compound `CCS(=O)(=O)N1CC(CC#N)(n2cc(-c3nc(Nc4ccc5c(c4)OCCN(C)CCOCCO5)nc4[nH]ccc34)cn2)C1` [Example 49, 2-(1-(ethylsulfonyl)-3-(4-(2-((7-methyl-2,3,6,7,8,9-hexahydro-5H-benzo[b][1,4,7]trioxa[10]azacyclododecan-12-yl)amino)-7H-pyrrolo[2,3-d]pyrimidin-4-yl)-1H-pyrazol-1-yl)azetidin-3-yl)acetonitrile], the inhibition at 0.01 µM at JAK1 was > 80%; at JAK2, > 80%; on JAK3, > 80%; at TYK2, > 80%; on LRRK2 it was 40 to 79%.

`CN1CCOc2ccc(Nc3ncc(F)c(Nc4cccc(S(=O)(=O)NC(C)(C)C)c4)n3)cc2OCC1` [Example 1, N-(tert-butyl)-3-((5-fluoro-2-((4-methyl-3,4,5,6-tetrahydro-2H-benzo[b][1,4,7]dioxazolin-9-yl)amino)pyrimidin-4-yl)amino)benzsulfamide]: the inhibition at 0.1 µM on JAK1 was 25 to 39%; at JAK2, > 80%; at JAK3, 25 to 39%. Also, the inhibition at 0.01 µM at JAK2 fell in the range of 40 to 79%. Besides, the IC50 on JAK2 is < 50 nM.

Turning to `CN1CCOc2ccc(Nc3ncc(Cl)c(Nc4cccc(NC(=O)[C@H]5C[C@H](N)C5)c4)n3)cc2OCC1` [Example 72, (1r,3r)-3-amino-N-(3-((5-chloro-2-((4-methyl-3,4,5,6-tetrahydro-2H-benzo[b][1,4,7]dioxazolin-9-yl)amino)pyrimidin-4-yl)amino)phenyl)cyclobutan-1-carboxamide], the inhibition at 0.01 µM on JAK1 is 25 to 39%; at JAK2, 40 to 79%.

As to `CN1CCOc2ccc(Nc3nc(-c4ccc(C(=O)NCC#N)cc4)c4cn[nH]c4n3)cc2OCC1` [Example 38, N-(cyanomethyl)-4-(6-((4-methyl-3,4,5,6-tetrahydro-2H-benzo[b][1,4,7]dioxazolin-9-yl)amino)-1H-pyrazolo[3,4-d]pyrimidin-4-yl)benzamide], the inhibition at 0.1 µM on JAK1 is 40 to 79%; at JAK2, > 80%; at JAK3, 25 to 39%; on TYK2, 40 to 79%; at LRRK2, 40 to 79%. The IC50 at JAK2 was < 50 nM; against LRRK2 it was 50 to 200 nM.

Take `CN1CCOc2ccc(Nc3nc(-c4cnn([C@H](CC#N)C5CCCC5)c4)c4cc[nH]c4n3)cc2OCC1` [Example 76, (R)-3-cyclopentyl-3-(4-(2-((4-methyl-3,4,5,6-tetrahydro-2H-benzo[b][1,4,7]dioxazolin-9-yl)amino)-7H-pyrrolo[2,3-d]pyrimidin-4-yl)-1H-pyrazol-1-yl)propanenitrile]: the inhibition at 0.01 µM on JAK1 was 40 to 79%; on JAK2, > 80%; at JAK3, 40 to 79%; on TYK2, > 80%; on LRRK2 it was 40 to 79%.

As for `CN1CCOCCOc2ccc(Nc3nc(-c4ccc(C(=O)NCC#N)cc4)c4cc[nH]c4n3)cc2OCC1` [Example 51, N-(cyanomethyl)-4-(2-((7-methyl-2,3,6,7,8,9-hexahydro-5H-benzo[b][1,4,7]trioxa [10]azacyclododecan-12-yl)amino)-7H-pyrrolo[2,3-d]pyrimidin-4-yl)benzamide], the inhibition at 0.01 µM on JAK1 is 40 to 79%; on JAK2 it was > 80%; on JAK3 it was 40 to 79%; on TYK2 it was 25 to 39%; on LRRK2, 25 to 39%.

For `CN1CCOc2ccc(Nc3ncc(F)c(-c4cn(C)c5ccccc45)n3)cc2OCC1` [Example 13, N-(5-fluoro-4-(1-methyl-1H-indol-3-yl)pyrimidin-2-yl)-4-methyl-3,4,5,6-tetrahydro-2H -benzo[b][1,4,7]bisoxazolin-9-amine], the inhibition at 0.1 µM at JAK2 lay within 40 to 79%; on TYK2 it was 25 to 39%; on LRRK2 it was 40 to 79%. Besides, the IC50 on JAK2 is < 50 nM; at JAK3 (kinase activity assay, Table 3) it was 50 to 200 nM; at LRRK2, 50 to 200 nM.

Values taken from patent EP4592286A1, “MACROCYCLIC NITROGEN-CONTAINING CROWN ETHER COMPOUND AND USE THEREOF AS PROTEIN KINASE INHIBITOR” (Artivila Biopharma, priority 2022, dated 2024).
